Assay results taken from patent publication US20240373877A1, “ANIMAL FOOD PRODUCT AND METHOD AND APPARATUS THEREFOR” (priority 2023, published 2024).

Assays:
[1] = Beef cattle feed trial (weight gain, feed efficiency, BUN); assay type: in vivo, Weanling Angus-X steers
[2] = system: bovine rumen microbes; test: Rumen microbial methane production in bovine rumen incubations; assay type: cell-based; conditions: Yeast 2%, Monensin 10 μM
Description: THYM was also found to have a very pronounced inhibition of methane production by rumen microbes.
Bovine rumen microbes were incubated anaerobically for 24 hours at 39° C. with a silage: corn substrate. Bar A indicates basal control incubation, and bars B-G indicate additions. […] Monensin (Rumensin) was used as a positive inhibitory control. The hop acid content of the THYM samples in incubation bars E & F was 100 and 60 μg/ml for alpha and beta acids respectively, similar to the concentrations of alpha and beta acids, 100 μg/ml, added in bars B and C.

CC[C@@]1([C@@H]2O[C@@H]([C@H]3O[C@@](O)(CO)[C@H](C)C[C@@H]3C)C[C@@H]2C)CC[C@H]([C@]2(C)CC[C@]3(C[C@H](O)[C@@H](C)[C@@H]([C@@H](C)[C@@H](OC)[C@H](C)C(=O)O)O3)O2)O1 [Monensin, monensin]
Average Daily Gain ([1]; 9 weeks, monensin 200 mg/animal or 1% THYM in rations): 1.65 kg/day | Gain to Feed Ratio ([1]; 9 weeks, monensin 200 mg/animal or 1% THYM in rations, M & T vs C p = 0.07): 0.38 kg/kg | blood urea nitrogen (BUN) level ([1]; feed trial, FIG. 6): significantly lower | inhibition at 10 µM ([2]; THYM 0.4% (of DM), vs paired control, p < 0.05): 68% | Methane Production, Experiment AVG ([2]; THYM 0.4%, N = 3 or 4): 11152 ppm
